Measured values: the NIST ThermoML archive (doi:10.1016/j.jct.2011.04.011)
Numbers after ± are expanded uncertainties.

Settings: Liquid, Vibrating tube method

COC [dimethyl ether]
mass density [kg/m3]
Settings	293.84 K	303.45 K	313.18 K	323 K	332.83 K	343.01 K	353 K	362.91 K	372.94 K
1000 kPa	669.27 ± 1.3	653.54 ± 1.3	–	–	–	–	–	–	–
3000 kPa	673.21 ± 1.3	657.94 ± 1.3	641.72 ± 1.4	624.46 ± 1.4	605.7 ± 1.5	584.39 ± 1.6	560.89 ± 1.8	–	–
5000 kPa	676.85 ± 1.3	662.06 ± 1.3	646.5 ± 1.3	630.01 ± 1.4	612.33 ± 1.4	592.63 ± 1.5	571.39 ± 1.6	547.69 ± 1.8	519.39 ± 2
10000 kPa	685.08 ± 1.3	671.42 ± 1.3	657.11 ± 1.3	642.19 ± 1.4	626.46 ± 1.4	609.39 ± 1.4	591.7 ± 1.5	572.99 ± 1.6	552.4 ± 1.8
15000 kPa	692.61 ± 1.3	679.73 ± 1.3	666.38 ± 1.3	652.54 ± 1.3	638.17 ± 1.4	622.87 ± 1.4	607.19 ± 1.4	591.04 ± 1.5	573.78 ± 1.6
20000 kPa	699.44 ± 1.3	687.19 ± 1.3	674.68 ± 1.3	661.65 ± 1.3	648.33 ± 1.4	634.17 ± 1.4	619.91 ± 1.4	605.41 ± 1.4	590.14 ± 1.5
25000 kPa	705.75 ± 1.3	694.14 ± 1.3	682.06 ± 1.3	669.81 ± 1.3	657.3 ± 1.4	644.06 ± 1.4	630.86 ± 1.4	617.51 ± 1.4	603.55 ± 1.4
30000 kPa	711.53 ± 1.3	700.39 ± 1.3	688.96 ± 1.3	677.2 ± 1.3	665.34 ± 1.4	652.87 ± 1.4	640.46 ± 1.4	627.99 ± 1.4	615.07 ± 1.4
35000 kPa	717 ± 1.3	706.33 ± 1.3	695.3 ± 1.3	684.06 ± 1.4	672.7 ± 1.4	660.84 ± 1.4	649.09 ± 1.4	637.26 ± 1.4	625.15 ± 1.4
40000 kPa	722.21 ± 1.3	711.79 ± 1.3	701.19 ± 1.4	690.37 ± 1.4	679.54 ± 1.4	668.11 ± 1.4	656.92 ± 1.4	645.67 ± 1.4	634.21 ± 1.4
50000 kPa	731.68 ± 1.4	721.98 ± 1.4	711.96 ± 1.4	701.9 ± 1.4	691.67 ± 1.4	681.15 ± 1.4	670.8 ± 1.4	660.45 ± 1.4	649.98 ± 1.5
60000 kPa	740.35 ± 1.4	731.17 ± 1.4	721.63 ± 1.4	712.04 ± 1.4	702.5 ± 1.4	692.63 ± 1.5	682.9 ± 1.5	673.27 ± 1.5	663.51 ± 1.5
70000 kPa	748.4 ± 1.4	739.59 ± 1.4	730.55 ± 1.4	721.44 ± 1.5	712.29 ± 1.5	702.89 ± 1.5	693.76 ± 1.5	684.63 ± 1.5	675.48 ± 1.6
